Drawing on patent US20230159532A1, “PARATHYROID HORMONE (PTH) RECEPTOR ANTAGONISTS AND USES THEREOF” (Crinetics Pharmaceuticals, Inc., priority 2021, published 2023), this text covers Ki for 15 compounds.

The experiment has as its target T1, human PTHR1 receptor (Homo sapiens, UniProt Q03431).
T1 construct: purchased Eurofins HTS030M
T1 sequence (Q03431 27-593): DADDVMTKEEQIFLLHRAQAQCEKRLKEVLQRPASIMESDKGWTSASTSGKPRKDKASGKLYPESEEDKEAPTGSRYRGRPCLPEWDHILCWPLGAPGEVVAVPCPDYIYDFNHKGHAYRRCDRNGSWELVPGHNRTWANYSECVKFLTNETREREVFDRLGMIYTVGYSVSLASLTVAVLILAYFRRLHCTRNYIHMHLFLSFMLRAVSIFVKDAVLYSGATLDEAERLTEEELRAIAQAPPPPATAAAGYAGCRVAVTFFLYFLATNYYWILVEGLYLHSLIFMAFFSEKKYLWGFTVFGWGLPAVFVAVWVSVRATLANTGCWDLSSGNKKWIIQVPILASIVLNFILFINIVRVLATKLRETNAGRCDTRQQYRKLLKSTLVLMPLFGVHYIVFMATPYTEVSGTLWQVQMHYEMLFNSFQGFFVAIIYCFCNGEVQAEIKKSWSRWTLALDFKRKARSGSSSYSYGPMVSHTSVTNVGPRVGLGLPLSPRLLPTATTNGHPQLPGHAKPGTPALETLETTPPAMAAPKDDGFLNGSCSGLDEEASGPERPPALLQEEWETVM
Briefly: Competitive antagonist binding assay for hPTH-R1 (radioactive competition binding, SPA beads). As to conditions: human PTHR1 membranes, [125I]-[Nle8,18,Tyr34]-PTH(1-34) 0.2 nM, 90 minutes at room temperature; read-out: hPTHR1 Ki. In outline: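 Displacement of 0.2 nM radioiodinated [Nle8,18,Tyr34]-PTH(1-34) from membrane-bound human PTHR1 measured by scintillation proximity after 90 min at room temperature. Compounds typically 0-10,000 nM final, pH 7.4 HEPES/Mg/Ca buffer with BSA and detergent. Ki calculated from competition data.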

`CCN1C(=O)N(c2c(F)cc(NCCN)cc2F)c2cc(Cl)ccc2-c2cc(F)cnc21` [1-15, 10-{4-[(2-aminoethyl)amino]-2,6-difluorophenyl}-13-chloro-8-ethyl-4-fluoro-6,8,10-triazatricyclo[9.4.0.0^2,7]pentadeca-1(11),2(7),3,5,12,14-hexaen-9-one]: the inhibition constant Ki is less than 100 nM. For `CCN1C(=O)N(c2c(F)cc(N3CCCNCC3)cc2F)c2cc(C#N)ccc2-c2cc(Cl)cnc21` [1-143, 4-chloro-10-[4-(1,4-diazepan-1-yl)-2,6-difluorophenyl]-8-ethyl-9-oxo-6,8,10-triazatricyclo[9.4.0.0^2,7]pentadeca-1(11),2(7),3,5,12,14-hexaene-13-carbonitrile] the value was less than 100 nM. With `CCN1C(=O)N(c2c(F)cc(NC3CNC3)cc2F)c2cc(C#N)ccc2-c2cc(Cl)cnc21` [1-234, 10-{4-[(azetidin-3-yl)amino]-2,6-difluorophenyl}-4-chloro-8-ethyl-9-oxo-6,8,10-triazatricyclo[9.4.0.0^2,7]pentadeca-1(11),2(7),3,5,12,14-hexaene-13-carbonitrile] the figure was less than 100 nM. With `CNCCNc1cc(F)c(N2C(=O)N(C)c3ncc(Cl)cc3-c3ccc(Cl)cc32)c(F)c1` [1-30, 4,13-dichloro-10-(2,6-difluoro-4-{[2-(methylamino)ethyl]amino}phenyl)-8-methyl-6,8,10-triazatricyclo[9.4.0.0^2,7]pentadeca-1(11),2(7),3,5,12,14-hexaen-9-one] the figure was less than 100 nM; with `CCN1C(=O)N(c2c(F)cc(NCCNCCO)cc2F)c2cc(Cl)cc(OC)c2-c2cc(F)cnc21` [1-88, 13-chloro-10-[2,6-difluoro-4-({2-[(2-hydroxyethyl)amino]ethyl}amino)phenyl]-8-ethyl-4-fluoro-15-methoxy-6,8,10-triazatricyclo[9.4.0.0^2,7]pentadeca-1(11),2(7),3,5,12,14-hexaen-9-one], less than 100 nM; with `CCN1C(=O)N(c2c(F)cc(NCCNCCNC)cc2F)c2cc(C#N)ccc2-c2cc(Cl)cnc21` [1-127, 4-chloro-10-{2,6-difluoro-4-[(2-{[2-(methylamino)ethyl]amino}ethyl)amino]phenyl}-8-ethyl-9-oxo-6,8,10-triazatricyclo[9.4.0.0^2,7]pentadeca-1(11),2(7),3,5,12,14-hexaene-13-carbonitrile], less than 100 nM. For “3-({2-[(4-{4-chloro-13-cyano-8-methyl-9-oxo-6,8,10-triazatricyclo[9.4.0.0^2,7]pentadeca-1(11),2(7),3,5,12,14-hexaen-10-yl}-3,5-difluorophenyl)amino]ethyl}amino)propanoic acid [1-217]”, the inhibition constant Ki is less than 100 nM. With `CCN1C(=O)N(c2c(F)cc(NCCNC[C@H](O)CO)cc2F)c2cc(C#N)ccc2-c2cc(F)cnc21` [1-200, 10-{4-[(2-{[(2S)-2,3-dihydroxypropyl]amino}ethyl)amino]-2,6-difluorophenyl}-8-ethyl-4-fluoro-9-oxo-6,8,10-triazatricyclo[9.4.0.0^2,7]pentadeca-1(11),2(7),3,5,12,14-hexaene-13-carbonitrile] the figure was less than 100 nM; with `CCN1C(=O)N(c2c(F)cc(NCCNC[C@@H](O)c3ccccc3)cc2F)c2cc(C#N)ccc2-c2cc(Cl)cnc21` [1-239, 4-chloro-10-{2,6-difluoro-4-[(2-{[(2S)-2-hydroxy-2-phenylethyl]amino}ethyl)amino]phenyl}-8-ethyl-9-oxo-6,8,10-triazatricyclo[9.4.0.0^2,7]pentadeca-1(11),2(7),3,5,12,14-hexaene-13-carbonitrile], less than 100 nM; with `CCN1C(=O)N(c2c(F)cc(N(C)CCNC)cc2F)c2cc(C#N)ccc2-c2cc(Cl)cnc21` [1-146, 4-chloro-10-(2,6-difluoro-4-{methyl[2-(methylamino)ethyl]amino}phenyl)-8-ethyl-9-oxo-6,8,10-triazatricyclo[9.4.0.0^2,7]pentadeca-1(11),2(7),3,5,12,14-hexaene-13-carbonitrile], less than 100 nM. `Cc1cc(Cl)cc2c1-c1cc(F)cnc1N(C)C(=O)N2c1c(F)cc(NCCNCCCC(=O)O)cc1F` [1-77, 4-({2-[(4-{13-chloro-4-fluoro-8,15-dimethyl-9-oxo-6,8,10-triazatricyclo[9.4.0.0^2,7]pentadeca-1(11),2(7),3,5,12,14-hexaen-10-yl}-3,5-difluorophenyl)amino]ethyl}amino)butanoic acid]: the inhibition constant (Ki) is less than 100 nM. For `CCN1C(=O)N(c2c(F)cc(NCCNC)cc2F)c2cc(Cl)ccc2-c2ccc(C)nc21` [3-1, 13-chloro-10-(2,6-difluoro-4-{[2-(methylamino)ethyl]amino}phenyl)-8-ethyl-5-methyl-6,8,10-triazatricyclo[9.4.0.0^2,7]pentadeca-1(11),2(7),3,5,12,14-hexaen-9-one] the value was less than 100 nM; for `CCN1C(=O)N(c2c(F)cc(NCCNC)cc2F)c2cc(Cl)ccc2-c2cc(C#N)cnc21` [1-89, 13-chloro-10-(2,6-difluoro-4-{[2-(methylamino)ethyl]amino}phenyl)-8-ethyl-9-oxo-6,8,10-triazatricyclo[9.4.0.0^2,7]pentadeca-1(11),2(7),3,5,12,14-hexaene-4-carbonitrile], less than 100 nM; for `CCN1C(=O)N(c2c(F)cc(NCCNC)cc2F)c2cc(Cl)ccc2-c2nc(C#N)ccc21` [3-16, 13-chloro-10-(2,6-difluoro-4-{[2-(methylamino)ethyl]amino}phenyl)-8-ethyl-9-oxo-3,8,10-triazatricyclo[9.4.0.0^2,7]pentadeca-1(11),2(7),3,5,12,14-hexaene-4-carbonitrile], 1000 to 10000 nM. With `CCN1C(=O)N(c2c(F)cc(NCCNCCO)cc2F)c2cc(Cl)ccc2-c2cc(C#N)cnc21` [1-90, 13-chloro-10-[2,6-difluoro-4-({2-[(2-hydroxyethyl)amino]ethyl}amino)phenyl]-8-ethyl-9-oxo-6,8,10-triazatricyclo[9.4.0.0^2,7]pentadeca-1(11),2(7),3,5,12,14-hexaene-4-carbonitrile] the figure was less than 100 nM.
